What was measured:
subjects with dementia = test: Trial in subjects with dementia (CDR 1-2, MMSE 14-24), Aptus positive and negative; assay type: in vivo, human
Description: In a trial, the relationship between Clinical Dementia Rating Scale (CDR) and Mini Mental State Exam (MMSE) scores with measures of obesity, including Body Mass Index (BMI), Waist Circumference (WC), and waist-to-hip ratio (W/H) was explored with administration of 17α-ethynylandrost-5-ene-3β,7β,17β-triol. The trial sought to explore the anti-inflammatory and insulin sensitizing activity of 17α-ethynylandrost-5-ene-3β,7β,17β-triol in subjects with dementia, using inclusion criteria of the CDR levels 1-2 and the MMSE scores of 14-24 for inclusion criteria.
In this trial, the correlation between CDR (1-2) and MMSE (14-24) scores and the presence or absence of amyloid by the Aptus test, and also the presence of absence of metabolic inflammation using markers of obesity and metabolic inflammation was explored.
With Aptus data available for 96 subjects that met the criteria for CDR and MMSE, only 35 subjects (36%) met the Aptus criteria. When measures of obesity were examined, BMI was available for 149 subjects. Due to the age-related decrease in muscle mass, only 60 (40%) of the subjects met the CDC criteria (male BMI >40, Female BMI >35) for obesity. These restrictions would severely limit enrollment. […]

[1] = system: patients with mild or moderate dementia; test: Exploratory Phase 2 trial NE3107-TRP-001 (ADAS-Cog 11, GRC, PHQ-9); assay type: in vivo, human; set-up: key to ADAS-Cog-11 score at 3M: ADAS-Cog11 score 0-70; higher = more severe cognitive impairment; conditions: for Patient Global Rating of Change (GRC): Month 3, scale −5 to 5; for ADAS-Cog-11 Change: baseline to 3M, decrease = improvement
Procedure: An exploratory Phase 2 trial of 17α-ethynylandrost-5-ene-3β,7β,17β-triol (NE3107-TRP-001) in 23 patients with mild (n=17) or moderate dementia (n=6) were conducted. Comparisons between baseline and post-intervention (3 months) were evaluated via multi-modal brain magnetic resonance images (MRIs; primary endpoints), measures of glucose and insulin homeostasis, and neuropsychological testing (secondary endpoints).
The interview results were compared with changes from baseline to Month 3 in cognitive functioning as measured by the ADAS-Cog11, and the patient-completed Global Rating of Change (GRC) at Month 3 in the Phase 2 trial (Table 8).
The ADAS-Cog 11 is a performance-based assessment of cognitive function that includes 11 patient-completed tasks that measure word recall, objective/figure naming, command following, constructional praxis, ideational praxis, orientation, word recognition, test direction recall, spoken language, comprehension, and word-finding difficulty. Scores range from 0-70 where higher scores indicate more severe cognitive impairment (i.e., decreases in score over time indicate improvement in cognition). The GRC is a single item that asks patients to rate changes in their condition, abilities, and overall sense of well-being from the start of the trial. Scores range from −5 (“Very much worse”) to 0 (“Unchanged”) to +5 (“Very much better”).

C#C[C@]1(O)CC[C@H]2[C@@H]3[C@@H](O)C=C4C[C@@H](O)CC[C@]4(C)[C@H]3CC[C@@]21C [17α-ethynylandrost-5-ene-3β,7β,17β-triol, 17-ethynyl-10R, 13S-dimethyl 2,3,4,7, 8R, 9S, 10, 11, 12, 13, 14S, 15, 16, 17-hexadecahydro-1H-cyclopenta[a]phenanthrene-3R, 7R, 17S-triol]
cognition (subjects with dementia): improvements in cognition independent of amyloid beta positivity
increase in ADAS-Cog 11 score, where not decreased ([1]; all interviewed patients, 3-month follow up, 3.1 to 3.8 points = clinically significant worsening): < 3.1 points
mean PHQ-9 score decrease ([1]; change from baseline): 4.3 points
improvement in depression symptoms (PHQ-9) ([1]; patients with baseline PHQ-9 score ≥5): greatest improvement in depression symptoms
individual PHQ-9 domains (apathy, depressive symptoms, sleep disturbance, fatigue, eating disorders, low self-esteem) ([1]; patients with baseline PHQ-9 score ≥5 compared to all patients): greater improvement, compared to all patients
Global Rating of Change (GRC) ([1]; patients with mild dementia, 3 months): improvements on the Global Rating of Change
ADAS-Cog 11 decrease ([1]; patients with mild dementia, baseline vs 3 months, p=0.0046): 2.6 point
Patient Global Rating of Change (GRC) ([1]; subject N-02-22): −5
ADAS-Cog-11 score at 3M ([1]; subject N-02-22, baseline 5.00): 5.67
ADAS-Cog-11 Change ([1]; subject N-02-22): +0.67
Patient Global Rating of Change (GRC) ([1]; subject N-03-22): 3.5
ADAS-Cog-11 score at 3M ([1]; subject N-03-22, baseline 11.33): 6.00
ADAS-Cog-11 Change ([1]; subject N-03-22): −5.33
Patient Global Rating of Change (GRC) ([1]; subject N-07-22): 1
ADAS-Cog-11 score at 3M ([1]; subject N-07-22, baseline 19.33): 14.67
ADAS-Cog-11 Change ([1]; subject N-07-22): −4.67
Comparison (ADAS-Cog 11/GRC/Interview) ([1]; subject N-10-22): +/−/NC
Patient Global Rating of Change (GRC) ([1]; subject N-10-22): −1
ADAS-Cog-11 score at 3M ([1]; subject N-10-22, baseline 5.00): 2.33
ADAS-Cog-11 Change ([1]; subject N-10-22): −2.67
Comparison (ADAS-Cog 11/GRC/Interview) ([1]; subject N-14-22): +/+/NC
Patient Global Rating of Change (GRC) ([1]; subject N-14-22): 2
ADAS-Cog-11 score at 3M ([1]; subject N-14-22, baseline 14.00): 9.00
ADAS-Cog-11 Change ([1]; subject N-14-22): −5.00
Patient Global Rating of Change (GRC) ([1]; subject N-16-22): 4
ADAS-Cog-11 score at 3M ([1]; subject N-16-22, baseline 21.00): 11.00
ADAS-Cog-11 Change ([1]; subject N-16-22): −10.00
Patient Global Rating of Change (GRC) ([1]; subject N-17-22): 4
ADAS-Cog-11 score at 3M ([1]; subject N-17-22, baseline 6.67): 9.33
ADAS-Cog-11 Change ([1]; subject N-17-22): +2.67
Patient Global Rating of Change (GRC) ([1]; subject N-18-22): 4
ADAS-Cog-11 score at 3M ([1]; subject N-18-22, baseline 10.00): 8.67
ADAS-Cog-11 Change ([1]; subject N-18-22): −1.33
Patient Global Rating of Change (GRC) ([1]; subject N-20-22): 3
ADAS-Cog-11 score at 3M ([1]; subject N-20-22, baseline 4.00): 3.33
ADAS-Cog-11 Change ([1]; subject N-20-22): −0.67
Patient Global Rating of Change (GRC) ([1]; subject N-22-22): 5
ADAS-Cog-11 score at 3M ([1]; subject N-22-22, baseline 27.67): 29.00
ADAS-Cog-11 Change ([1]; subject N-22-22): +1.33
Patient Global Rating of Change (GRC) ([1]; subject N-23-22): 3
ADAS-Cog-11 score at 3M ([1]; subject N-23-22, baseline 9.33): 10.00
ADAS-Cog-11 Change ([1]; subject N-23-22): +0.67
